Results on nine compounds are retold here after patent US20160038519A1, “ADMINISTRATION OF KARENITECIN FOR THE TREATMENT OF ADVANCED OVARIAN CANCER, INCLUDING CHEMOTHERAPY-RESISTANT AND/OR THE MUCINOUS ADENOCARCINOMA SUB-TYPES” (BioNumerik Pharmaceuticals, Inc., priority 2014, published 2016).

Structures are written as SMILES. Values after ≈ are worked out from the molar mass of the structure shown. Where two headings read alike, the source gives them in different places. Where only a bound is given, the exact number is not on record here.

Series [1] concerns resistant subline containing less than 4% of the topoisomerase I activity. The following applies: subline with less than 4% of topoisomerase I activity; cited from earlier work.
The subject of series [2] is MDR-expressing sublines. To be noted: cited from earlier work; for Resistance of MDR-expressing sublines relative to parental wild-type cells: comparison studies; for Change in sensitivity typically described for classic MDR substrates: same experiments.
Series [3] concerns JHOM2B Cell Line. Description: SRB cytotoxicity assay, JHOM2B. It counts as cell-based, human. The method, then: (§1) In vitro studies were conducted in human mucinous ovarian cancer cell lines including JHOM2B, OMC3, and COV644. In one series of experiments, the dose response curves for BNP1350 (also known as Karenitecin), SN-38 (Irinotecan), and Topotecan were obtained and IC50 values were determined. In a second series of experiments, the effect of BNP7787 (2,2′-dithio-bis-ethane sulfonate; Tavocept) on BNP1350-induced cytotoxicity at selected BNP1350 concentrations was examined.
(§2) The JHOM2B and OMC3 cell lines were purchased from Riken Cell Bank (Japan). The COV644 cell line was purchased from SigmaAldrich. Cells were maintained as monolayered cultures in T-75 flasks and then seeded to microtiter plate wells for experiments. Population doubling-times for these three cell lines were long (i.e., exceeding 40 hours, and for some of the cell lines approaching 96 hours); therefore, the Applicants conducted initial pilot experiments and determined optimal seeding density to obtain A570 values in untreated controls that would fall within the linear range of the SRB assay after seven (7) total days of cell growth. JHOM2B cells were cultured in DMEM:F12 (1:1)+0.1 mM non-essential amino acids (NEAA)+10% FBS and were seeded at 6,000 cells per well. OMC3 cells were cultured in HamF12+10% FBS and were seeded at 8,000 cells per well. COV644 cells were cultured in DMEM+2 mM glutamine+10% FBS and were seeded at 6,000 cells per well.
(§3) The cells were manipulated in a Microzone laminar flow hood traditionally used for maintaining aseptic environments around automated instrumentation such as microplate robots, and the like. Cells were grown and maintained at 37° C. in a humidified atmosphere containing 5% CO2 in a water jacketed cell culture incubator (Forma Scientific). Cells were counted using a ViCell counter (Beckman-Coulter). An automated plate washer/stacker (ELx405/BioStak from BioTek Instruments) and a microplate reader (SpectraMax Plus from Molecular Devices) were used for conducting the SRB assay and determining A570 values for wells in the plates and the percentage of control values. Prior to SRB assays, cell viability was monitored by evaluation of microtiter plate wells. Dead cells detach and float while living cells remain attached to the bottom of the cell well.
(§4) SN-38 (Irinotecan; Sigma H0165, lot MKBQ4981) and Topotecan (Sigma T2705, lot 052M4728V) were purchased from SigmaAldrich. BNP1350 (lot KN-C192-135) and BNP7787 (lot 205001) were synthesized at BioNumerik Pharmaceuticals, Inc. (San Antonio, Tex.). BNP1350, SN38, and Topotecan were prepared as 2.5, 2.5, and 25 mM stocks in DMSO (ATCC, cell culture grade).
(§5) The sulforhodamine B (SRB) cytotoxicity assay was used to assess cell survival. Briefly, after the medium was decanted from individual plate wells, trichloroacetic acid (100 μL of 10.0 percent solution) was added to each well, and the plates were incubated at 4° C. for 1 hour. The plates were washed five times with water using an automated microplate washer (Model ELx405, Bio-Tek Instruments), SRB solution (100 μL of 0.4% SRB dissolved in 1.0 percent acetic acid) was added, and plates remained at room temperature for 15 minutes. The plates were then washed five times using acetic acid (1.0 percent), air dried, and bound dye was solubilized in Tris base (150 μL, 10 mM). Plates were agitated (gently) for 5 minutes and the absorbance values of the SRB dye-protein adduct at 570 nanometers (A570) were determined using an automated microtiter plate reader (SpectraMax Plus, Molecular Devices). IC50 values were extrapolated from dose response curves of the data using OriginLab Software.

In series [4] the test system is OMC3 Cell Line. Put plainly: SRB cytotoxicity assay, OMC3. It counts as cell-based, human. As to the method:
as §1, §2, §3, §4, §5

The subject of series [5] is COV644 Cell Line. Description: SRB cytotoxicity assay, COV644. The format is cell-based, human. As to the method:
as §1, §2, §3, §4, §5
(§6) The 1050 values exceeded the solubility in medium for each compound—the limit of solubility in cell culture medium for the compounds were as follows: 2 micromolar for BNP1350 and SN38, and 20 micromolar for Topotecan. Cells were treated for periods of 2.5 hours or 6 hours and, in each case, the […] values were not reached. Longer treatments were not performed.
On the technique in general: In SRB staining, fixed cells bind dye roughly in proportion to their protein.

A short description of series [6]: Limit of solubility in cell culture medium. It counts as physicochemical. As to the method: as §6
Series [7] has as its system platinum-refractory epithelial ovarian cancer. The following applies: cited from earlier work.
For series [8] the following is noted: human, in vivo; cited from earlier work.
The subject of series [9] is stage III/IV advanced epithelial ovarian cancer resistant or refractory to platinum- and taxane-based regimens. As to the method: Such Phase III clinical trial is sometimes referred to herein as the “Karenitecin Phase III Trial”.
The Primary Endpoint of the disclosed Karenitecin Phase III Trial was Progression Free Survival (“PFS”); which was defined as the time period from the date of randomization to the date of first radiographically-documented Progressive Disease (“PD”) or date of death due to any cause, taking the event date that occurs first. The date of PD was determined by radiographical objective disease (RECIST) measurement. The Secondary Endpoints of the disclosed Karenitecin Phase III Trial included: (i) Overall Survival (hereinafter “OS”), defined as the time from the date of randomization to the date of death due to any cause; (ii) Incidence of anemia, defined as the proportion of subjects who experience ≧grade 3 anemia based on National Cancer Institute Common Terminology Criteria for Adverse Events (NCI-CTCAE) criteria at any time post-baseline after receiving study treatment; (iii) Incidence of neutropenia (including febrile neutropenia), defined as the proportion of subjects who experience ≧grade 3 neutropenia based on NCI-CTCAE criteria at any time post-baseline after receiving study treatment; and (iv) Incidence of thrombocytopenia, defined as the proportion of subjects who experience ≧grade 3 thrombocytopenia based on NCI-CTCAE criteria at any time post-baseline after receiving study treatment.
Approximately 80 study centers participated in this clinical study. The primary endpoint was Progression Free Survival (PFS); defined as the time period from the date of randomization to the date of first radiographically documented progressive disease or disease progression (“PD”) or date of death due to any cause, taking the event date that occurs first.
The primary endpoint was Progression Free Survival (PFS); defined as the time period from the date of randomization to the date of first radiographically documented progressive disease (PD) or date of death due to any cause, taking the event date that occurs first. The date of PD was determined by radiographically objective disease (RECIST) measurement.
• Overall Survival (OS), defined as the time from the date of randomization to the date of death due to any cause. • Incidence of anemia, defined as the proportion of subjects who experience ≧grade 3 anemia based on National Cancer Institute Common Terminology Criteria for Adverse Events (NCI-CTCAE) criteria at any time post-baseline after receiving study treatment. • Incidence of neutropenia (including febrile neutropenia), defined as the proportion of subjects who experience ≧grade 3 neutropenia based on NCI-CTCAE criteria at any time post-baseline after receiving study treatment. • Incidence of thrombocytopenia, defined as the proportion of subjects who experience ≧grade 3 thrombocytopenia based on NCI-CTCAE criteria at any time post-baseline after receiving study treatment.
During this period, subjects received either Karenitecin (1.0 mg/m^2/day administered as a 60-minute intravenous infusion) or Topotecan (1.5 mg/m^2/day administered as a 30-minute intravenous infusion) daily for 5 consecutive days, every 21 days (one treatment cycle=21 days).

The mark [10] stands for this setting: 2 hour drug exposure, read-out: IC50, Test 1 (2 replicate plates).
Where [11] appears, read: 2 hour drug exposure, read-out: IC50, Test 2 (3 replicate plates).
Where [12] appears, read: Homo sapiens, 2 hour drug exposure, average of Test 1 and Test 2, read-out: IC50, Average.
Setting [13] is: Homo sapiens, 2 hour drug exposure, read-out: IC50, Test 1 (2 replicate plates).
[14] abbreviates: Homo sapiens, 2 hour drug exposure, read-out: IC50, Test 2 (3 replicate plates).
[15] abbreviates: Homo sapiens, read-out: IC50 values.
[16] abbreviates: Mucinous adenocarcinoma subtype.

Consider `CC[C@@]1(O)C(=O)OCc2c1cc1n(c2=O)Cc2cc3ccccc3nc2-1` [camptothecin], for which the “Decrease in sensitivity of resistant subline compared with wild-type parental cells” value in series [1] is 1000 fold. Besides, in series [2], the “Resistance of MDR-expressing sublines relative to parental wild-type cells” value is reported as “No increase in resistance”.
As for `CCc1c2c(nc3ccc(O)cc13)-c1cc3c(c(=O)n1C2)COC(=O)[C@]3(O)CC` [SN38], the IC50 in series [3] (2 hour drug exposure, average of Test 1 and Test 2, read-out: IC50, Average) worked out at 0.666 µM; in series [3] (setting [10]), 0.61 ± 0.13 µM; in series [3] (setting [11]), 0.723 ± 0.028 µM; in series [3] (read-out: IC50 values), 0.667 µM; in series [4] (setting [10]), 0.55 ± 0.06 µM; in series [4] (setting [11]), 0.58 ± 0.127 µM. Further, the IC50 in series [4] (read-out: IC50 values) was 0.565 µM; in series [5] (2, 5, and 6 hour drug exposures, did not reach 50% of Control, read-out: IC50, Test 1 (2 replicate plates)), > 2 µM; in [5] (2, 5, and 6 hour drug exposures, did not reach 50% of Control, read-out: IC50, Test 2 (2 to 3 replicate plates)) it was > 2 µM; in series [5] (2, 5, and 6 hour drug exposures, read-out: IC50, Average) it was > 2 µM. For the same compound, in [6], the “Limit of solubility in cell culture medium” value came to 2 µM.
For `N.N.O=C([O-])C1(C(=O)[O-])CCC1.[Pt+2]` [carboplatin], in [7] (6 subjects), the Stable disease is 18%. Also, in [7] (26 subjects (7/26)), the “Response rate, subgroup with platinum-free interval of 12 months” value is reported as 27%. In addition, in [7] (33 subjects, single-agent carboplatin after taxane failure), the “Overall response rate to platinum reinduction” value is listed as 21%. Further, the “Median duration of response” value in series [7] (in vivo) is given as ≥ 7 months.
Turning to `Nc1ccn([C@@H]2O[C@H](CO)[C@@H](O)C2(F)F)c(=O)n1` [Gemcitabine], in series [8], the Subjects with neutropenia result is given as “up to 90%”.
On to `COc1cc([C@@H]2c3cc4c(cc3[C@@H](O[C@@H]3O[C@@H]5CO[C@@H](C)O[C@H]5[C@H](O)[C@H]3O)[C@H]3COC(=O)[C@H]23)OCO4)cc(OC)c1O` [etoposide], for which the “Change in sensitivity typically described for classic MDR substrates” value in series [2] is listed as 200 fold.
As for `COc1cccc2c1C(=O)c1c(O)c3c(c(O)c1C2=O)C[C@@](O)(C(=O)CO)C[C@@H]3O[C@H]1C[C@H](N)[C@H](O)[C@H](C)O1` [doxorubicin], the “Change in sensitivity typically described for classic MDR substrates” value in [2] was 200 fold.
With `CC[C@@]1(O)C(=O)OCc2c1cc1n(c2=O)Cc2cc3c(N)cccc3nc2-1` [9-aminocamptothecin, 9-amino-camptothecin], the “Resistance of MDR-expressing sublines relative to parental wild-type cells” value in [2] was “two-fold more resistant”.
Regarding `CC[C@@]1(O)C(=O)OCc2c1cc1n(c2=O)Cc2cc3c(CN(C)C)c(O)ccc3nc2-1` [Topotecan], the IC50 in series [3] (setting [12]) amounted to 5.17 µM; in series [3] (setting [13]), 4.75 ± 0.25 µM; in series [3] (setting [14]), 5.59 ± 0.28 µM; in [3] (setting [15]), 5.17 µM; in [4] (setting [12]) it was 3.94 µM; in [4] (setting [13]), 3.12 ± 0.18 µM. Moreover, the 50% inhibitory concentration (IC50) is 4.76 ± 0.25 µM in series [4] (setting [14]); 3.94 µM in [4] (setting [15]); > 20 µM in series [5] (Homo sapiens, 2, 5, and 6 hour drug exposures, did not reach 50% of Control, read-out: IC50, Test 1 (2 replicate plates)); > 20 µM in series [5] (Homo sapiens, 2, 5, and 6 hour drug exposures, did not reach 50% of Control, read-out: IC50, Test 2 (2 to 3 replicate plates)); > 20 µM in [5] (Homo sapiens, 2, 5, and 6 hour drug exposures, read-out: IC50, Average); > 20 µM in series [5] (setting [15]). The “Median PFS” value in [9] (setting [16]) is 9.1 weeks; in series [9] (overall trial population, IRC-determined), 17.8 weeks; in series [9] (refractory or resistant and/or mucinous subpopulation), 18.7 weeks. In addition, in [9] (setting [16]), the “Overall survival (OS), third quartile” value turned out to be 19.4 months. In addition, the “Resistance of MDR-expressing sublines relative to parental wild-type cells” value in series [2] is reported as “nine-fold more resistant”. The compound further had a solubility in [6] (aqueous buffer) of 20 µM (≈ 8.43 µg/mL).
As to `CC[C@@]1(O)C(=O)OCc2c1cc1n(c2=O)Cc2cc3cc4c(cc3nc2-1)OCO4` [10,11-methylenedioxycamptothecin], the “Resistance of MDR-expressing sublines relative to parental wild-type cells” value in series [2] is on record as “No increase in resistance”.

In general, IC50 refers to the midpoint of a concentration-inhibition curve. By solubility is commonly meant the dissolved amount per volume that the medium holds. Low readings indicate a poorly soluble substance, high ones a readily soluble substance.
